# Tested on: D5 Th1 T cell line
# Assay: nucleic acid expression profile of D5 Th1 T cell line stimulated with 500 nM ionomycin, 1 μM CsA plus ionomycin or 20 nM PMA plus ionomycin; 11K chip, first replicate
# Format: cell-based, murine
# Set-up: expression level of Msa.15983.0_f_at / expression level of Msa.1669.0_f_at / expression level of Msa.18713.0_g_at / expression level of D86609_s_at / expression level of TC19211_at / expression level of TC21156_at / expression level of TC24045_at / expression level of TC30384_g_at / expression level of TC3225_at / expression level of TC38978_at / expression level of TC39080_at / expression level of TC17495_at: unit not given here
# Protocol: D5 or primary T cells from NFAT1−/− or wild type DO11.10 transgenic mice were stimulated for 2, 6 or 16 hours with 500 nM ionomycin, 20 nM PMA plus 500 nM ionomycin, or 1 μM CsA plus 500 nM ionomycin. Total RNA was isolated with an RNeasy kit (QIAGEN). Ten μg of total RNA was quantitatively amplified and biotin-labeled as described (Byrne et al., (2000) “Preparation of mRNA for Expression Monitoring” Current Protocols in Molecular Biology (John Wiley & Sons, Inc.) pp. 22.22.21-22.22.13). Hybridization to GeneChips® (Affymetrix) displaying probes for 11,000 mouse genes/ESTs was performed at 40° C. overnight in a mix that included 10 μg fragmented RNA, 6× SSPE, 0.005% Triton X-100 and 100 μg/ml herring sperm DNA in a total volume of 200 μl. Chips were washed, stained with SA-PE and read using an Affymetrix GeneChip® scanner and accompanying gene expression software. Labeled bacterial RNAs of known concentration were spiked into each chip hybridization mix to generate an internal standard curve, allowing normalization between chips and conversion of raw hybridization intensity values to mRNA frequency (mRNA molecules per million).
# Nucleic acid expression profiles were obtained from a T cell line at multiple time points and in various T cell states. The D5 Th1 T cell line was stimulated in three different ways: 1) ionomycin alone (e.g., causing the regulatory factor NFAT to move from the cytoplasm to the nucleus); 2) ionomycin+PMA (e.g., causing both NFAT and the transcription factor AP-1 to enter the nucleus); 3) ionomycin +cyclosporin A (CsA) (e.g., preventing NFAT from entering the nucleus in response to ionomycin). […] Cells were stimulated for 0, 2, 6, and 16 hours. RNA was isolated and analyzed on a nucleic acid chip with probes that monitor the expression of 11,000 nucleic acids located at unique addresses. The experiment was done twice (i.e., with two replicates, Rep. 1 and Rep. 2). Nucleic acid expression at the 2, 6 and 16 hour timepoints was compared to nucleic acid expression at 0 hours.
# The nucleic acid expression data was stored in a computer database. A database query was used to identify all nucleic acids that were deemed “increasing” or “decreasing” in response to ionomycin (relative to the 0 hour sample) in at least one timepoint in Rep. 1, and the nucleic acids were also deemed “increasing” or “decreasing” in response to ionomycin in Rep. 2.
# To test the hypothesis that NFAT in the absence of AP-1 and NFKB induced a genetic program of anergy, genes induced in D5 T cells by ionomycin stimulation alone were evaluated (FIGS. 1, 2 and 6). Samples from D5 cells stimulated with ionomycin plus CsA, which blocks anergy induction, and ionomycin plus PMA, which pharmacologically mimic complete stimulation through the TCR and CD28 were included. RNA was prepared from unstimulated D5 T cells and from cells stimulated for 2, 6 or 16 h under these three conditions, and gene transcription profiles were evaluated using Affymetrix oligonucleotide arrays (FIG. 6A).
smiles,measurement,setting,value
"C[C@H](CCC(=O)O)C[C@H](C)C[C@H](C)C(=O)/C=C(\O)[C@H](C)C[C@H](C)C/C=C/[C@@H](C)[C@@H](O)[C@@H](C)[C@@H](O)C[C@@H]1CC[C@@](C)([C@H]2CC[C@@](C)([C@@H](C)O)O2)O1 [Ionomycin, ionomycin]",expression level of TC30384_g_at,6 h,73
same,expression level of TC30935_at,6 h,27
same,expression level of TC30992_s_at,6 h,4
same,expression level of TC31681_at,6 h,28
same,expression level of TC33206_at,6 h,8
same,expression level of TC33833_at,6 h,8
same,expression level of TC34186_at,6 h,26
same,expression level of TC36089_at,6 h,122
same,expression level of TC36583_at,6 h,20
same,expression level of TC37631_at,6 h,27
same,expression level of TC38094_at,6 h,7
same,expression level of TC38978_at,6 h,9
same,expression level of TC39012_at,6 h,45
same,expression level of TC39080_at,6 h,14
same,expression level of TC39762_at,6 h,41
same,expression level of TC40487_g_at,6 h,12
same,expression level of TC41014_at,6 h,15
same,expression level of U44731_s_at,6 h,26
same,expression level of X67914_s_at,6 h,62
same,expression level of Z31202_s_at,6 h,30
same,expression level of aa144045_s_at,6 h,39
same,expression level of aa174748_at,6 h,23
same,expression level of c81206_rc_at,6 h,16
same,expression level of k00083_s_at,6 h,32
same,expression level of x12531_s_at,6 h,34
same,expression level of D86609_s_at,16 h,20
same,expression level of ET63436_at,16 h,86
same,expression level of MIP1-B_at,16 h,119
same,expression level of Msa.11439.0_s_at,16 h,34
same,expression level of Msa.15983.0_f_at,16 h,17
same,expression level of Msa.1669.0_f_at,16 h,35
same,expression level of Msa.18713.0_g_at,16 h,28
same,expression level of Msa.21745.0_s_at,16 h,6
same,expression level of TC3225_at,16 h,23
same,expression level of TC14671_g_at,16 h,13
same,expression level of TC16364_at,16 h,34
same,expression level of TC16828_at,16 h,30
same,expression level of TC17132_at,16 h,32
same,expression level of TC17495_at,16 h,12
same,expression level of TC17558_at,16 h,23
same,expression level of TC18221_at,16 h,11
same,expression level of TC19211_at,16 h,12
same,expression level of TC21156_at,16 h,16
same,expression level of TC23346_s_at,16 h,13
same,expression level of TC23450_s_at,16 h,13
same,expression level of TC24045_at,16 h,15
same,expression level of TC24067_at,16 h,15
same,expression level of TC25965_at,16 h,16
same,expression level of TC27326_g_at,16 h,29
same,expression level of TC29889_at,16 h,11
same,expression level of TC30384_g_at,16 h,57
same,expression level of TC30935_at,16 h,22
same,expression level of TC30992_s_at,16 h,6
same,expression level of TC31681_at,16 h,18
same,expression level of TC33206_at,16 h,6
same,expression level of TC33833_at,16 h,6
same,expression level of TC34186_at,16 h,13
same,expression level of TC36089_at,16 h,75
same,expression level of TC36583_at,16 h,18
same,expression level of TC37631_at,16 h,26
same,expression level of TC38094_at,16 h,7
same,expression level of TC38978_at,16 h,12
same,expression level of TC39012_at,16 h,35
same,expression level of TC39080_at,16 h,14
same,expression level of TC39762_at,16 h,31
same,expression level of TC40487_g_at,16 h,8
same,expression level of TC41014_at,16 h,12
same,expression level of U44731_s_at,16 h,17
same,expression level of X67914_s_at,16 h,51
same,expression level of Z31202_s_at,16 h,22
same,expression level of aa144045_s_at,16 h,33
same,expression level of aa174748_at,16 h,22
same,expression level of c81206_rc_at,16 h,15
same,expression level of k00083_s_at,16 h,35
same,expression level of x12531_s_at,16 h,97

# From patent US20030064380A1, “Anergy-regulated molecules” (The Center For Blood Research, Inc., priority 2001, published 2003)
